Results reported in patent US9169254B2, “Spiroimidazolone derivative” (Chugai Seiyaku Kabushiki Kaisha, priority 2009, dated 2015).

These molecules were tested against T1, human PTH1 receptor (Homo sapiens, UniProt Q03431) (assay: In vitro cAMP signal activity in HKRK-B7 cells (LLC-PK1 cells overexpressing the human PTH1 receptor)). Details: HKRK-B7 cells; compound at 1×10^−3 M; cAMP produced as percentage of that produced by hPTH(1-34) at 100 nM.
T1 sequence (Q03431 27-593): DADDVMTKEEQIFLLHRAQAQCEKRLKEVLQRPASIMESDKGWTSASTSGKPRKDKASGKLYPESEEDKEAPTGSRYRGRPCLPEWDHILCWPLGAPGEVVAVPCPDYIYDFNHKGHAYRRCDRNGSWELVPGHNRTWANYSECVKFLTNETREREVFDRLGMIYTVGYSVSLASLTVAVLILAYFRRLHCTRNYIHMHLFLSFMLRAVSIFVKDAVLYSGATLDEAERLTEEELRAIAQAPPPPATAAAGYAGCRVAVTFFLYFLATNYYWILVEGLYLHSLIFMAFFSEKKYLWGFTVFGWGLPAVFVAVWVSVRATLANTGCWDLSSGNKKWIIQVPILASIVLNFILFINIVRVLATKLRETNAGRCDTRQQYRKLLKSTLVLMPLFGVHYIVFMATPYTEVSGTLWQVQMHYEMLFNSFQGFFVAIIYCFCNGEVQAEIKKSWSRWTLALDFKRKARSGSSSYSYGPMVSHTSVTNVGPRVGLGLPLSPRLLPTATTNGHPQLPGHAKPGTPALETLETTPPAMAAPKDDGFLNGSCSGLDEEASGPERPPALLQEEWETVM
Type: cell-based

Row | Structure (SMILES) | cAMP production activity (%)
1 | CC(=O)Nc1ccc(CCS(=O)(=O)N2CCC3(CC2)N=C(C2CCC(C(F)(F)F)CC2)NC3=O)c(C)c1 (stereo not shown) [Compound 904, N-(3-methyl-4-{2-[4-oxo-2-(4-trifluoromethyl-cyclohexyl)-1,3,8-triaza-spiro[4.5]dec-1-ene-8-sulfonyl]-ethyl}-phenyl)-acetamide] | 69
2 | CC(=O)Nc1ccc(CCS(=O)(=O)N2CCC3(CC2)N=C([C@H]2CC[C@@H](CCF)CC2)NC3=O)c(C)c1 [Compound 1072, N-[4-(2-{2-[4-(2-fluoro-ethyl)-cyclohexyl]-4-oxo-1,3,8-triaza-spiro[4.5]dec-1-ene-8-sulfonyl}-ethyl)-3-methyl-phenyl]-acetamide] | 54
3 | Cc1cc(C(=O)N2CCC(C)(O)CC2)cc(C)c1/C=C/S(=O)(=O)N1CCC2(CC1)N=C(C1CCC(C)CC1)NC2=O (stereo not shown) [Compound 999, 8-{(E)-2-[4-(4-hydroxy-4-methyl-piperidine-1-carbonyl)-2,6-dimethyl-phenyl]-ethenesulfonyl}-2-(4-methyl-cyclohexyl)-1,3,8-triaza-spiro[4.5]dec-1-en-4-one] | 61
4 | Cc1cc2ccc1CCS(=O)(=O)N1CCC3(CC1)N=C(NC3=O)c1cc(cc(C(F)(F)F)c1)OCC[C@H](O)[C@H](O)COCCN(C)C2=O [Compound 1439] | 18
5 | Cc1cc(N2CCOCC2=O)ccc1CCS(=O)(=O)N1CCC2(CC1)N=C(c1cccc(OC(F)(F)F)c1)NC2=O [Compound 793, 8-{2-[2-methyl-4-(3-oxo-morpholin-4-yl)-phenyl]-ethanesulfonyl}-2-(3-trifluoromethoxy-phenyl)-1,3,8-triaza-spiro[4.5]dec-1-en-4-one] | 124
6 | COCc1cc(NC(C)=O)ccc1CCS(=O)(=O)N1CCC2(CC1)N=C(C1CCC(C)CC1)NC2=O (stereo not shown) [Compound 754, N-(3-methoxymethyl-4-{2-[2-(4-methyl-cyclohexyl)-4-oxo-1,3,8-triaza-spiro[4.5]dec-1-ene-8-sulfonyl]-ethyl}-phenyl)-acetamide] | 89
7 | Cc1cc(C(=O)N(C)C)ccc1CCS(=O)(=O)N1CCC2(CC1)N=C(c1cccc(Cl)c1F)NC2=O [Compound 93, 4-{2-[2-(3-chloro-2-fluoro-phenyl)-4-oxo-1,3,8-triaza-spiro[4.5]dec-1-ene-8-sulfonyl]-ethyl}-3,N,N-trimethyl-benzamide] | 111
8 | Cc1ccc(OCCC(O)CO)cc1/C=C/S(=O)(=O)N1CCC2(CC1)N=C(c1cccc(OC(F)(F)F)c1)NC2=O (stereo not shown) [Compound 255, 8-{(E)-2-[5-(3,4-dihydroxy-butoxy)-2-methyl-phenyl]-ethenesulfonyl}-2-(3-trifluoromethoxy-phenyl)-1,3,8-triaza-spiro[4.5]dec-1-en-4-one] | 64
9 | Cc1cc(C(=O)N2CCC(C)(O)CC2)cc(C)c1/C=C/S(=O)(=O)N1CCC2(CC1)N=C(c1ccc(OCC(F)(F)C(F)F)c(C(F)(F)F)c1)NC2=O [Compound 1199, 8-{(E)-2-[4-(4-hydroxy-4-methyl-piperidine-1-carbonyl)-2,6-dimethyl-phenyl]-ethenesulfonyl}-2-[4-(2,2,3,3-tetrafluoro-propoxy)-3-trifluoromethyl-phenyl]-1,3,8-triaza-spiro[4.5]dec-1-en-4-one] | 77
10 | Cc1cc(C(=O)N2CCC(C)(O)CC2)cc(C)c1/C=C/S(=O)(=O)N1CCC2(CC1)N=C(c1cccc(C(F)(F)C(F)(F)F)c1)NC2=O [Compound 1196, 8-{(E)-2-[4-(4-hydroxy-4-methyl-piperidine-1-carbonyl)-2,6-dimethyl-phenyl]-ethenesulfonyl}-2-(3-pentafluoroethyl-phenyl)-1,3,8-triaza-spiro[4.5]dec-1-en-4-one] | 76
11 | Cc1cc(N(C)C(N)=O)cc(C)c1CCS(=O)(=O)N1CCC2(CC1)N=C(CCCCCCCCCCCNC(=O)OC(C)(C)C)NC2=O [Compound 1360, [11-(8-{2-[2,6-dimethyl-4-(1-methyl-ureido)-phenyl]-ethanesulfonyl}-4-oxo-1,3,8-triaza-spiro[4.5]dec-1-en-2-yl)-undecyl]-carbamic acid tert-butyl ester] | 121
12 | Cc1cc(C(=O)N2CCN(C(=O)N(C)C)CC2)ccc1CCS(=O)(=O)N1CCC2(CC1)N=C(c1cccc(C(F)(F)F)c1)NC2=O [Compound 382, 4-(3-methyl-4-{2-[4-oxo-2-(3-trifluoromethyl-phenyl)-1,3,8-triaza-spiro[4.5]dec-1-ene-8-sulfonyl]-ethyl}-benzoyl)-piperazine-1-carboxylic acid dimethylamide] | 36
13 | Cc1cc2cc(C)c1CCS(=O)(=O)N1CCC3(CC1)N=C(CCCCCCCCCCC(=O)N2C)NC3=O [Compound 1448] | 9.4
14 | Cc1cc(C(=O)N2CCC(C)(O)CC2)cc(C)c1CCS(=O)(=O)N1CCC2(CC1)N=C(C1CCC(C)CC1)NC2=O (stereo not shown) [Compound 1382, 8-{2-[4-(4-hydroxy-4-methyl-piperidine-1-carbonyl)-2,6-dimethyl-phenyl]-ethanesulfonyl}-2-(4-methyl-cyclohexyl)-1,3,8-triaza-spiro[4.5]dec-1-en-4-one] | 93
15 | CCCC[C@]1(F)CC[C@@H](C2=NC3(CCN(S(=O)(=O)CCc4ccc(NC(C)=O)cc4C)CC3)C(=O)N2)CC1 [Compound 1062, N-(4-{2-[2-(4-butyl-4-fluoro-cyclohexyl)-4-oxo-1,3,8-triaza-spiro[4.5]dec-1-ene-8-sulfonyl]-ethyl}-3-methyl-phenyl)-acetamide] | 65
16 | O=C1NC(C2CCCCC2)=NC12CCN(S(=O)(=O)CCc1cc3nc[nH]c3cc1C(F)(F)F)CC2 [Compound 839, 2-cyclohexyl-8-[2-(6-trifluoromethyl-1H-benzimidazol-5-yl)-ethanesulfonyl]-1,3,8-triaza-spiro[4.5]dec-1-en-4-one] | 57
17 | Cc1cc(N(C)C(N)=O)cc(C)c1CCS(=O)(=O)N1CCC2(CC1)N=C(C1CCC(C)(C)CC1)NC2=O [Compound 938, 1-(4-{2-[2-(4,4-dimethyl-cyclohexyl)-4-oxo-1,3,8-triaza-spiro[4.5]dec-1-ene-8-sulfonyl]-ethyl}-3,5-dimethyl-phenyl)-1-methyl-urea] | 97
18 | CC[C@H]1CC[C@H](C2=NC3(CCN(S(=O)(=O)CCc4ccc(NC5=NCCS5)cc4C)CC3)C(=O)N2)CC1 [Compound 1295, 8-{2-[4-(4,5-Dihydro-thiazol-2-ylamino)-2-methyl-phenyl]-ethanesulfonyl}-2-(4-ethyl-cyclohexyl)-1,3,8-triaza-spiro[4.5]dec-1-en-4-one] | 73
19 | Cc1cc(C(=O)N2CC(O)C2)ccc1CCS(=O)(=O)N1CCC2(CC1)N=C(c1cccc(C(F)(F)F)c1)NC2=O [Compound 377, 8-{2-[4-(3-hydroxy-azetidine-1-carbonyl)-2-methyl-phenyl]-ethanesulfonyl}-2-(3-trifluoromethyl-phenyl)-1,3,8-triaza-spiro[4.5]dec-1-en-4-one] | 64
20 | Cc1cc(N2C[C@H](CO)OC2=O)ccc1/C=C/S(=O)(=O)N1CCC2(CC1)N=C(c1cccc(C(F)(F)F)c1)NC2=O [Compound 222, 8-{(E)-2-[4-((R)-5-hydroxymethyl-2-oxo-oxazolidin-3-yl)-2-methyl-phenyl]-ethenesulfonyl}-2-(3-trifluoromethyl-phenyl)-1,3,8-triaza-spiro[4.5]dec-1-en-4-one] | 43
21 | Cc1cc(C(=O)N2CCC(O)CC2)cc(C)c1/C=C/S(=O)(=O)N1CCC2(CC1)N=C(c1ccc(F)c(OCCCC(F)(F)C(F)(F)F)c1)NC2=O [Compound 1091, 2-[4-Fluoro-3-(4,4,5,5,5-pentafluoro-pentyloxy)-phenyl]-8-{(E)-2-[4-(4-hydroxy-piperidine-1-carbonyl)-2,6-dimethyl-phenyl]-ethenesulfonyl}-1,3,8-triaza-spiro[4.5]dec-1-en-4-one] | 118
22 | Cc1cc(N(C)C(N)=O)cc(C)c1CCS(=O)(=O)N1CCC2(CC1)N=C(CCCCCc1ccccc1)NC2=O [Compound 1340, 1-(3,5-dimethyl-4-{2-[4-oxo-2-(5-phenyl-pentyl)-1,3,8-triaza-spiro[4.5]dec-1-ene-8-sulfonyl]-ethyl}-phenyl)-1-methyl-urea] | 84
23 | CCCCCCCCCC1=NC2(CCN(S(=O)(=O)/C=C/c3c(C)cc(OCCC(O)CO)cc3C)CC2)C(=O)N1 (stereo not shown) [Compound 627, 8-{(E)-2-[4-(3,4-Dihydroxy-butoxy)-2,6-dimethyl-phenyl]-ethenesulfonyl}-2-nonyl-1,3,8-triaza-spiro[4.5]dec-1-en-4-one] | 5.3
24 | Cc1cc(CN(CCCN(C)C)C(=O)OC(C)(C)C)ccc1/C=C/S(=O)(=O)N1CCC2(CC1)N=C(C1CCCCC1)NC2=O [Compound 569, {4-[(E)-2-(2-cyclohexyl-4-oxo-1,3,8-triaza-spiro[4.5]dec-1-ene-8-sulfonyl)-vinyl]-3-methyl-benzyl}-(3-dimethylamino-propyl)-carbamic acid tert-butyl ester] | 4.2
25 | O=C1NC(c2ccc(Cl)cc2Cl)=NC12CCN(S(=O)(=O)c1ccc(Cl)cc1)CC2 [Compound 44, 8-(4-Chloro-benzenesulfonyl)-2-(2,4-dichloro-phenyl)-1,3,8-triaza-spiro[4.5]dec-1-en-4-one] | 25
